Assay results published in the supplement of paper PMC10627819.

Columns and labels:
B. subtilis 168 [1] = assay: fitness (endpoint OD595 vs no drug) (fraction); higher = more growth
Outline: (§1)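 Cultures at OD595 0.01 were dispensed into 384-well plates in TSB, LB Lennox or CY and incubated at 37 °C. Every 30 min for 14 h, OD595 was read and corrected by the first reading. Fitness is the optical density at entry into stationary phase relative to the robust mean of no-drug control wells, capped at 1.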

S. aureus DSM 20231 [2] = assay: as above
Outline: as §1

S. aureus Newman [3] = assay: as above
Outline: as §1

S. pneumoniae D39V [4] = assay: as above
Outline: as §1

B. subtilis 168 [5] = assay: Bliss interaction score (quartile over a dose matrix) (fitness difference); higher = more antagonism (negative = synergy)
Outline: (§2)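 Values were capped at 1 after dividing OD595 at stationary-phase entry by the plate's robust no-drug mean. This ratio is fitness, and single-drug fitness was inferred from the combination data. The Bliss score is observed minus product-expected fitness, given as quartiles over technical, biological and donor/recipient replicates.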

S. aureus DSM 20231 [6] = assay: as above
Outline: as §2

S. aureus Newman [7] = assay: as above
Outline: as §2

S. pneumoniae D39V [8] = assay: as above
Outline: as §2
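Throughout, for Bliss interaction score (quartile over a dose matrix): first quartile when negative (synergy) and third quartile when positive (antagonism).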

CO/N=C(\C(=O)N[C@@H]1C(=O)N2C(C(=O)O)=C(COC(C)=O)CS[C@H]12)c1csc(N)n1 [Cefotaxime] + Cc1cc(NS(=O)(=O)c2ccc(N)cc2)no1 [Sulfamethoxazol]
fitness, one replicate
Details	partner 0.5 µg/mL	partner 1 µg/mL	partner 2 µg/mL	partner 4 µg/mL	partner 8 µg/mL
B. subtilis 168 [1], first compound 0.00775 µg/mL	–	0.802	0.77	0.757	–
B. subtilis 168 [1], first compound 0.0155 µg/mL	–	0.719	0.638	0.6	–
B. subtilis 168 [1], first compound 0.031 µg/mL	–	0.552	0.513	0.475	–
B. subtilis 168 [1], first compound 0.0625 µg/mL	0.664	0.494	0.438	–	–
B. subtilis 168 [1], first compound 0.125 µg/mL	0.395	0.402	0.275	–	–
B. subtilis 168 [1], first compound 0.25 µg/mL	0.325	0.0239	0.201	–	–
S. aureus DSM 20231 [2], first compound 0.039 µg/mL	–	0.724	0.758	0.714	–
S. aureus Newman [3], first compound 0.039 µg/mL	–	0.86	–	–	0.922
S. aureus Newman [3], first compound 0.078 µg/mL	–	–	–	–	0.877
S. aureus Newman [3], first compound 0.156 µg/mL	–	–	–	–	0.823
S. aureus Newman [3], first compound 0.312 µg/mL	–	–	–	–	0.588
S. aureus Newman [3], first compound 0.625 µg/mL	–	0.0508	0.0123	0.0053	–
S. aureus Newman [3], first compound 1.25 µg/mL	–	0.0193	0.0269	0.0043	–
S. aureus Newman [3], first compound 2.5 µg/mL	–	0.0252	0.0046	0.0076	–

fitness
Details	partner 1 µg/mL	partner 2 µg/mL	partner 4 µg/mL
B. subtilis 168 [1], first compound 0.5 µg/mL	0.221	0.187	0.211
B. subtilis 168 [1], first compound 1 µg/mL	0.115	0.0739	0.0877
B. subtilis 168 [1], first compound 2 µg/mL	0.11	0.0944	0.0802
S. aureus DSM 20231 [2], first compound 0.078 µg/mL	0.737	0.735	0.74
S. aureus DSM 20231 [2], first compound 0.156 µg/mL	0.681	0.686	0.687
S. aureus DSM 20231 [2], first compound 0.312 µg/mL	0.619	0.605	0.631
S. aureus Newman [3], first compound 0.039 µg/mL	–	0.944	0.886
S. aureus Newman [3], first compound 0.078 µg/mL	0.776	0.821	0.833
S. aureus Newman [3], first compound 0.156 µg/mL	0.687	0.752	0.748
S. aureus Newman [3], first compound 0.312 µg/mL	0.408	0.535	0.547
S. pneumoniae D39V [4], first compound 0.0018 µg/mL	0.945	0.969	0.913
S. pneumoniae D39V [4], first compound 0.0035 µg/mL	0.984	0.955	0.943
S. pneumoniae D39V [4], first compound 0.007 µg/mL	0.894	0.91	0.888

Details	Bliss interaction score
B. subtilis 168 [5]	0.054
S. aureus DSM 20231 [6]	0.046
S. aureus Newman [7]	0.0672
S. pneumoniae D39V [8]	0.0301
